Read-outs that look alike come from different tables or passages of the source.
Experiments:
[1] = Blood level screening after oral dose; assay type: in vivo, Sprague-Dawley rats; conditions: rat, oral gavage 10 mg/kg; for concentration at 1 h / concentration at 3 h / concentration at 6 h: male, Sprague-Dawley, plasma; for concentration at 1 h: read-out: Plasma Levels (μM) 1 hr; for concentration at 3 h: read-out: Plasma Levels (μM) 3 hr; for concentration at 6 h: read-out: Plasma Levels (μM) 6 hr
Method in brief: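 Unfasted male Sprague-Dawley rats received 10 mg/kg by oral gavage in PEG, PEG-400 or PEG:H2O:EtOH. Plasma was solvent-extracted and the inhibitor measured by HPLC or LC/MS.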

[2] = system: polymorphoneucleocyte (PMN); assay: Extracellular Matrix (ECM) degradation assay; assay type: cell-based; conditions: PMN's stimulated with opsonized zymosan, 4 hr at 37° C.; for inhibition at 1 µM / ECM DATA % Inhibition 1 uM: 1 uM inhibitor; for inhibition at 5 µM / ECM DATA % Inhibition 5 uM: 5 uM inhibitor
Protocol: Forty-eight well plates on which extracellular matrix had been established were supplied to Cortech by Dr. Simon's group at the State University of New York at Stony Brook. Briefly, the plates were prepared as follows: R22 rat heart smooth muscle cells were seeded into wells at 2.5×10^4 cells/cm. The cells were fed every 4 days with Eagle's Minimal Essential Media supplemented with fetal bovine serum, tryptose phosphate broth, cefotaxime and streptomycin. At confluence, daily supplements of 50 ug/ml ascorbic acid were added for 8 to 10 days during the synthesis of the ECM layer. [^35S]sulfate and [^3H]proline were also added to the culture media to incorporate radiolabel into the matrix. Cells were later lysed with 25 mM NH4OH. Plates were washed three times with water and once with phosphate-buffered saline containing 0.02% NaN3. Plates were stored at 4° C. until use.
Matrix degradation assays were performed as follows: 0.40 ml of Hanks balance salt solution (HBSS) containing 1 or 5 uM test inhibitor (final concentration; diluted from DMSO stock solution; <2% DMSO final concentration) was added to the wells. After 30 minutes, 50 ul of a polymorphoneucleocyte (PMN) suspension was added resulting in 5×10^5 cells/well. PMN's were stimulated with opsonized zymosan. Zymosan particles were washed and suspended in 0.5 ml human serum for 1 hr at 37° C., vortexing every 15 min. The particles were then washed three times with HBSS and added to wells at a ratio of 10 particles/PMN in a volume of 50 ul. After a 4 hr incubation at 37° C., a 100 ul aliquot of the supernatant was withdrawn for scintillation counting. Following removal of the remaining supernatant, the residual ECM was solubilized with 0.5 ml 2M NaOH. The amount of tritium in this solubilized ECM was accessed by scintillation. ECM degradation data are expressed as (soluble counts released/total ECM counts)—(basal counts released without PMN's/total ECM counts).

[3] = target: T1, human neutrophil elastase (HNE) (Homo sapiens, UniProt P08246); assay: HNE Ki of CE compounds, tested as described in WO 96/16080; assay type: biochemical
T1 sequence (P08246 30-267): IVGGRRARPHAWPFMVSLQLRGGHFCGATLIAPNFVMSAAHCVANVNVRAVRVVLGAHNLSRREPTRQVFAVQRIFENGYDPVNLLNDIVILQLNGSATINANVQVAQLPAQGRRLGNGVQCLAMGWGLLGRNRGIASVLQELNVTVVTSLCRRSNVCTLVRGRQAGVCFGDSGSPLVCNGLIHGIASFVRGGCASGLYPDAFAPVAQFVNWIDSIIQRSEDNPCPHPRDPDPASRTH

Structure (SMILES)	concentration at 1 h [1] [µM]	concentration at 3 h [1] [µM]	inhibition at 1 µM [2] [%]	inhibition at 5 µM [2] [%]	Ki ([3]; HNE Ki (nM)) [nM]	concentration at 6 h [1] [µM]	Ki ([3]; read-out: HNE Ki) [nM]	Plasma Levels (μM) 3 hr [1] [µM]	ECM DATA % Inhibition 1 uM [2] [%]	ECM DATA % Inhibition 5 uM [2] [%]	Plasma Levels (μM) 1 hr [1] [µM]	Plasma Levels (μM) 6 hr [1] [µM]
Cc1cccc(Cc2nnc(C(=O)[C@@H](NC(=O)CN3C(=O)CN=C(c4ccccn4)c4ccccc43)C(C)C)o2)c1 [CE2217, 2-Oxo-5-(2-pyridyl)-1,4-benzodiazepine-N-[1-(2-[5-(3-methylbenzyl)-1,3,4-oxadiazolyl]carbonyl)-2-(S)-methylpropyl]acetamide]	1.99	0.521	28.1	41.2	5.5							
Cc1cccc(Cc2nnc(C(=O)C(NC(=O)CN3C(=O)C(N)N=C(c4ccc(Cl)cc4)c4ccccc43)C(C)C)o2)c1 [CE2224, (R,S)-3-Amino-2-oxo-5-(4-chlorophenyl)-1,4-benzodiazepine-N-[1-(2-[5-(3-methylbenzyl)-1,3,4-oxadiazolyl]carbonyl)-2-(R,S)-methylpropyl]acetamide]	1.84	1.94	43.2	66.8		1.96	1					
Cc1cccc(Cc2nnc(C(=O)C(NC(=O)CN3C(=O)C(NC(=O)OCc4ccccc4)N=C(c4ccccc4Cl)c4cc(Cl)ccc43)C(C)C)o2)c1 [CE2230, (R,S)-3-Benzyloxycarbonylamino-2-oxo-5-(2-chlorophenyl)-1,4-(2′-chlorobenzodiazepine)-N-[1-(2-[5-(3-methylbenzyl)-1,3,4-oxadiazolyl]carbonyl)-2-(R,S)-methylpropyl]acetamide]							2.6	0	37.7	37.8		
Cc1cccc(Cc2nnc(C(=O)[C@@H](NC(=O)CN3C(=O)CN=C(C4CCNCC4)c4ccccc43)C(C)C)o2)c1 [CE2233, 2-Oxo-5-(4-piperidinyl)-1,4-benzodiazepine-N-[1-(2-[5-(3-methylbenzyl)-1,3,4-oxadiazolyl]carbonyl)-2-(S)-methylpropyl]acetamide]	0.07	0.065	54.7	55.4		0.036	41.6					
Cc1cccc(Cc2nnc(C(=O)[C@@H](NC(=O)CN3C(=O)CN=C(c4ccc(C(F)(F)F)cc4)c4ccccc43)C(C)C)o2)c1 [CE2237, 2-Oxo-5-(4-trifluoromethylphenyl)-1,4 benzodiazepine-N-[1-(2-[5-(3-methylbenzyl)-1,3,4-oxadiazolyl]carbonyl)-2-(S)-methylpropyl]acetamide]	1.02	1.8	34.6	42.6		0.84	3					
Cc1cccc(Cc2nnc(C(=O)[C@@H](NC(=O)CN3C(=O)CNC3=O)C(C)C)o2)c1 [CE2238, 2,5-Imidazolidinedione-N-[1-(2-[5-(3-methylbenzyl)-1,3,4-oxadiazolyl]carbonyl)-2-(S)-methylpropyl]acetamide]	2.57	1.74	10.1	18.8		1.03	162					
Cc1cccc(Cc2nnc(C(=O)[C@@H](NC(=O)CN3C(=O)NC(C)(C)C3=O)C(C)C)o2)c1 [CE2239, 4,4-Dimethyl-2,5-imidazolidinedione-N-[1-(2-[5-(3-methylbenzyl)-1,3,4-oxadiazolyl]carbonyl)-2-(S)-methylpropyl]acetamide]							43	1.15	11.9	11.3	1.46	0.71
Cc1cccc(Cc2nnc(C(=O)[C@@H](NC(=O)CN3C(=O)N[C@@H](C(C)C)C3=O)C(C)C)o2)c1 [CE2240, 4-(S)-(2-Isopropyl)-2,5-imidazolidinedione-N-[1-(2-[5-(3-methylbenzyl)-1,3,4-oxadiazolyl]carbonyl)-2-(S)-methylpropyl]acetamide]							30	0.5	16.8	13.5	1.12	0.29
Cc1cccc(Cc2nnc(C(=O)[C@@H](NC(=O)CN3C(=O)NC4(CCCCC4)C3=O)C(C)C)o2)c1 [CE2241, 4-Spirocyclohexane-2,5-imidazolidinedione-N-[1-(2-[5-(3-methylbenzyl)-1,3,4-oxadiazolyl]carbonyl)-2-(S)-methylpropyl]acetamide]							14	0.289	18.6	31.7	0.598	0.078
Cc1cccc(Cc2nnc(C(=O)[C@@H](NC(=O)CN3C(=O)N[C@H](Cc4c[nH]c5ccccc45)C3=O)C(C)C)o2)c1 [CE2243, 4-(R)-(3-Indolemethylene)-2,5-imidazolidinedione-N-[1-(2-[5-(3-methylbenzyl)-1,3,4-oxadiazolyl]carbonyl)-2-(S)-methylpropyl]acetamide]							11	2.104	48	54.9	2.801	1.598
Cc1cccc(Cc2nnc(C(=O)[C@@H](NC(=O)CN3C(=O)N[C@H](CC(C)C)C3=O)C(C)C)o2)c1 [CE2246, 4-(R)-(2-Isobutyl)-2,5-imidazolidinedione-N-[1-(2-[5-(3-methylbenzyl)-1,3,4-oxadiazolyl]carbonyl)-2-(S)-methylpropyl]acetamide]							18.5	0.837	−2.3	32.6	1.182	0.496
Cc1cccc(Cc2nnc(C(=O)[C@@H](NC(=O)CN3C(=O)N[C@H](CC(=O)N(C)C)C3=O)C(C)C)o2)c1 [CE2247, 4-(R)-(2-N,N-Dimethylcarboxamido)-2,5-imidazolidinedione-N-[1-(2-[5-(3-methylbenzyl)-1,3,4-oxadiazolyl]carbonyl)-2-(S)-methylpropyl]acetamide]							62.4	0.572	13.3	21.2	1.017	0.186
Cc1cccc(Cc2nnc(C(=O)[C@@H](NC(=O)CN3C(=O)CN=C(c4ccc5c(c4)OCO5)c4ccccc43)C(C)C)o2)c1 [CE2248]							3.1	1.58	39.4	63.2	1.65	1.22
COC(=O)CCC[C@H]1NC(=O)N(CC(=O)N[C@H](C(=O)c2nnc(Cc3cccc(C)c3)o2)C(C)C)C1=O [CE2249, 4-(R)-(3-Carbomethoxy)propyl-2,5-imidazolidinedione-N-[1-(2-[5-(3-methylbenzyl)-1,3,4-oxadiazolyl]carbonyl)-2-(S)-methylpropyl]acetamide]							13	0.704	22.4	42.4	1.179	0.213
Cc1cccc(Cc2nnc(C(=O)[C@@H](NC(=O)Cn3c(-c4ccc(F)cc4)ccc(N)c3=O)C(C)C)o2)c1 [CE2251, 2-[5-Amino-6-oxo-2-(4-fluorophenyl)-1,6-dihydro-1-pyridinyl]-N-[1-(2-[5-(3-methylbenzyl)-1,3,4-oxadiazolyl]carbonyl)-2-(S)-methylpropyl]acetamide]							0.43	1.11	54.1	74.5	1.63	0.73
